From PubChem BioAssay (NCI)
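Values below derive from 48-hour exposures of cells grown in 96-well plates, with endpoints linearly interpolated between the two concentrations bracketing the appropriate inhibition level. Definition used: TGI = concentration required for complete inhibition of growth.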

Legend:
Assay in all cases: inhibition of tumour cell growth, NCI panel, 48 h
[1] = tested on: TK-10 renal
[2] = tested on: ACHN renal
[3] = tested on: OVCAR-8 ovarian
[4] = tested on: KM20L2 colon
[5] = tested on: UO-31 renal
[6] = tested on: HCT-15 colon
[7] = tested on: NCI-H460 lung
[8] = tested on: DLD-1 colon
[9] = tested on: SR leukemia
[10] = tested on: XF 498 CNS
[11] = tested on: OVCAR-5 ovarian
[12] = tested on: K-562 leukemia
[13] = tested on: SK-MEL-28 melanoma
[14] = tested on: UACC-62 melanoma
[15] = tested on: CAKI-1 renal
[16] = tested on: HT29 colon
[17] = tested on: DMS 114 small cell lung
[18] = tested on: LOX IMVI melanoma
[19] = tested on: UACC-257 melanoma
[20] = tested on: SK-OV-3 ovarian
[21] = tested on: HCC-2998 colon
[22] = tested on: M14 melanoma
[23] = tested on: NCI-H226 lung
[24] = tested on: NCI-H23 lung
[25] = tested on: U251 CNS
[26] = tested on: KM12 colon
[27] = tested on: DMS 273 small cell lung
[28] = tested on: HOP-92 NSCLC
[29] = tested on: COLO 205 colon
[30] = tested on: M19-MEL melanoma
[31] = tested on: HCT-116 colon
[32] = tested on: LXFL 529 NSCLC
[33] = tested on: SNB-75 CNS
[34] = tested on: SF-539 CNS
[35] = tested on: A549 NSCLC
[36] = tested on: EKVX NSCLC
[37] = tested on: MALME-3M melanoma
[38] = tested on: RPMI-8226 leukemia
[39] = tested on: HOP-62 NSCLC
[40] = tested on: SF-268 CNS
[41] = tested on: MOLT-4 leukemia
[42] = tested on: 786-0 renal
[43] = tested on: CCRF-CEM leukemia
[44] = tested on: IGROV1 ovarian
[45] = tested on: SK-MEL-5 melanoma
[46] = tested on: SN12C renal
[47] = tested on: HL-60(TB) leukemia
[48] = tested on: SW-620 colon
[49] = tested on: OVCAR-3 ovarian
[50] = tested on: SK-MEL-2 melanoma
[51] = tested on: SNB-19 CNS
[52] = tested on: RXF 393 renal
[53] = tested on: NCI-H522 lung
[54] = tested on: HOP-18 NSCLC
[55] = tested on: SNB-78 CNS
[56] = tested on: SF-295 CNS
[57] = tested on: OVCAR-4 ovarian
[58] = tested on: A498 renal

In the case of `Cn1c(=O)c2c(nc(C[N+]3([O-])CCOCC3)n2C)n(C)c1=O`, the TGI [1] is reported as > 100 µM, the TGI [2] is reported as > 100 µM and the TGI [3] is reported as > 100 µM. For the same compound, the TGI [4] was > 100 µM, the TGI [5] was > 100 µM and the TGI [6] was > 100 µM. The TGI [7] was > 100 µM, the TGI [8] was > 100 µM and the TGI [9] was > 100 µM. For the same compound, the TGI [10] was > 100 µM, the TGI [11] was > 100 µM and the TGI [12] was > 100 µM. The TGI [13] was > 100 µM, the TGI [14] was > 100 µM and the TGI [15] was > 100 µM. For the same compound, the TGI [16] was > 100 µM, the TGI [17] was > 100 µM and the TGI [18] was > 100 µM. For the same compound, the TGI [19] was > 100 µM, the TGI [20] was > 100 µM and the TGI [21] was > 100 µM. The TGI [22] was > 100 µM, the TGI [23] was > 100 µM and the TGI [24] was > 100 µM. For the same compound, the TGI [25] was > 100 µM, the TGI [26] was > 100 µM and the TGI [27] was > 100 µM. For the same compound, the TGI [28] was > 100 µM, the TGI [29] was > 100 µM and the TGI [30] was > 100 µM. The TGI [31] was > 100 µM, the TGI [32] was > 100 µM and the TGI [33] was > 100 µM. The TGI [34] was > 100 µM, the TGI [35] was > 100 µM and the TGI [36] was > 100 µM. For the same compound, the TGI [37] was > 100 µM, the TGI [38] was > 100 µM and the TGI [39] was > 100 µM. The TGI [40] was > 100 µM, the TGI [41] was > 100 µM and the TGI [42] was > 100 µM. For the same compound, the TGI [43] was > 100 µM, the TGI [44] was > 100 µM and the TGI [45] was > 100 µM. For the same compound, the TGI [46] was > 100 µM, the TGI [47] was > 100 µM and the TGI [48] was > 100 µM. For the same compound, the TGI [49] was > 100 µM, the TGI [50] was > 100 µM and the TGI [51] was > 100 µM. For the same compound, the TGI [52] was > 100 µM and the TGI [53] was > 100 µM.
With `CCOC(=O)C1=C(O)c2ccccc2C(=O)C1=O` the TGI [1] was > 100 µM, the TGI [2] was > 100 µM and the TGI [3] was > 100 µM. The TGI [5] was > 100 µM, the TGI [6] was > 100 µM and the TGI [7] was > 100 µM. For the same compound, the TGI [8] was > 100 µM, the TGI [9] was > 100 µM and the TGI [54] was > 100 µM. The TGI [10] was > 100 µM, the TGI [11] was > 100 µM and the TGI [12] was > 100 µM. The TGI [13] was > 100 µM, the TGI [14] was > 100 µM and the TGI [15] was > 100 µM. For the same compound, the TGI [16] was > 100 µM, the TGI [17] was > 100 µM and the TGI [18] was > 100 µM. For the same compound, the TGI [19] was > 100 µM, the TGI [20] was > 100 µM and the TGI [21] was > 100 µM. For the same compound, the TGI [22] was > 100 µM, the TGI [23] was > 100 µM and the TGI [24] was > 100 µM. The TGI [25] was > 100 µM, the TGI [26] was > 100 µM and the TGI [55] was > 100 µM. The TGI [27] was > 100 µM, the TGI [28] was > 100 µM and the TGI [29] was > 100 µM. For the same compound, the TGI [30] was 54.4 µM, the TGI [31] was > 100 µM and the TGI [56] was > 100 µM. For the same compound, the TGI [33] was > 100 µM, the TGI [34] was > 100 µM and the TGI [35] was > 100 µM. The TGI [36] was > 100 µM, the TGI [37] was > 100 µM and the TGI [38] was > 100 µM. The TGI [39] was > 100 µM, the TGI [57] was > 100 µM and the TGI [40] was > 100 µM. For the same compound, the TGI [41] was > 100 µM, the TGI [42] was > 100 µM and the TGI [43] was > 100 µM. For the same compound, the TGI [44] was > 100 µM, the TGI [58] was > 100 µM and the TGI [45] was > 100 µM. For the same compound, the TGI [46] was > 100 µM, the TGI [47] was > 100 µM and the TGI [48] was > 100 µM. The TGI [49] was > 100 µM, the TGI [50] was > 100 µM and the TGI [51] was > 100 µM. The TGI [52] was > 100 µM and the TGI [53] was > 100 µM.
